Assays:
[1] = In vitro metabolic stability in rabbit cornea homogenates; type: in vitro ADME, Dutch Belted rabbits; conditions: 1 μM test compound, 0.3 mg/mL corneal protein homogenate, pH=6.0, 37° C.; for Rate of formation Metabolite 1: metabolite 1 = pilocarpine; for Rate of formation Metabolite 2: metabolite 2 as named under each value (Dexmedetomidine metabolite, brimonidine metabolite or brimonidine)
Description: Dutch Belted rabbits will be euthanized with an overdose of sodium pentobarbital. The corneas will be collected and homogenized in ice-cold potassium chloride solution (pH=7.4). The homogenate will be centrifuged at 755×g for 30 min at 4° C. and aliquots of the supernatant will be stored at or below −70° C. until metabolism experiments will be conducted. Prior to storing the homogenates, an aliquot will be removed for the determination of protein concentrations by calculating the […] using a spectrophotometer. All metabolic stability experiments will be performed in triplicate in 96-well plate format. The final incubation mixture will contain 1 μM test compound, 0.3 mg/mL corneal protein homogenate in a final volume of 0.5 mL 0.1 M potassium phosphate buffer (pH=6.0). The final percentage of solvent in the incubation will be less than 1.0% to prevent inhibition of enzymatic activity. Following a pre-incubation at 37° C., test article will be added to initiate the reaction. At designated time points (typically less than 60 minutes to capture the linear range of metabolite formation), 0.05 mL aliquots will be removed from the incubation mixtures using a clean pipet tip and immediately placed in organic solvent to stop any esterase activity. The hydrolysis to the metabolites will be confirmed to be due to esterase activity and not chemical stability. The samples will be analyzed by liquid chromatography with mass spectrometry (LC-MS/MS) detection to determine the metabolite concentrations resulting from the metabolism of the hybrid compounds. Internal standards were used to compensate for variability from sample processing, chromatographic elution, mass spectrometer response and ion suppression by matrix components.

rabbit pupil [2] = test: In vivo pharmacology study of measuring pupil size (Example 27); set-up: species or system Dutch belted rabbits; conditions: FIG. 2; 0.5% and 2%
Description: (§1) Three (3) female Dutch belted rabbits were randomly assigned to each group by Provantis or Excel based on body weight. Each animal was dosed 40 μL of testing article (see Table 4 below) to both eyes. The pupil sizes of both eyes were measured at baseline (30 minutes before dosing), 0.5 h, 1 h, 2 h, 3 h, 4 h, 6 h, 8 h after dosing. The pupil size measurement data were analyzed for efficacy of pupil constriction. CBT compounds tested are co-drugs of pilocarpine-alpha adrenergic agonists as described above. The vehicle used to dissolve CBT compounds is the same as the vehicle used in the negative control in group 1. Positive control 1 is 1.25% Pilocarpine HCl in an aqueous buffer. Positive control 2 is 3.0% Carbachol and 0.2% Brimonidine in an aqueous buffer. This control can result in a large pupil constrictive effect.

rabbit pupil [3] = test: In vivo pharmacology study of measuring pupil size (Example 28); set-up: species or system Dutch belted rabbits; conditions: FIG. 3; for efficacy of pupil constriction compared with positive control 1: positive control 1 is 1.25% Pilocarpine HCl; for potency of pupil constriction compared with other co-drugs: all co-drugs at 1%
Description: as §1, with “Table 5” for “Table 4”, “8 h, 24” for “8”, “constriction. Co-drug” for “constriction. CBT”, “compounds” for “compounds tested”, “dissolve Co-drug” for “dissolve CBT”

[4] = In vivo ocular pharmacokinetics following a single topical ophthalmic administration; set-up: species or system New Zealand White Rabbits; conditions: 0.5% (w/v) solution; for Conc. of Co-drug in Cornea Tissue: both eyes
Description: Rabbits will be dosed once by ocular instillation to both eyes with each compound formulated in a 0.5% (w/v) solution. At 0.25, 0.5, 1, 2, 6 and 10 hours post dose, cornea, aqueous humor, conjunctiva and eyelid margin will be collected and stored at approximately −70° C. until bioanalysis. Ocular tissue samples will be analyzed by liquid chromatography with mass spectrometry detection to determine the parent and metabolite (pilocarpine and brimonidine) concentrations resulting from the metabolism of ester linked co-drugs. Internal standards will be used to compensate for variability from sample processing, chromatographic elution, mass spectrometer response and ion suppression by matrix components. […]

[5] = 0.25 hr after dosing the co-drug
[6] = 0.5 hr after dosing the co-drug

**Q.** Which results are given for CC[C@H](C(=O)OCc1cccc([C@H](C)c2c[nH]cn2)c1C)[C@H](CO)Cc1cncn1C [Compound-1, 3-((S)-1-(1H-imidazol-4-yl)ethyl)-2-methylbenzyl (2S,3R)-2-ethyl-4-hydroxy-3-((1-methyl-1H-imidazol-5-yl)methyl)butanoate]?
**A.** Rate of formation Metabolite 1 [1]: 5.56 ± 0.43 nM/min/mg; Rate of formation Metabolite 2 [1]: 3.52 ± 0.23 nM/min/mg

**Q.** For CC[C@H](C(=O)OCc1cccc([C@H](C)c2c[nH]cn2)c1C)[C@H](COC(C)=O)Cc1cncn1C [Compound-2, 3-((S)-1-(1H-imidazol-4-yl)ethyl)-2-methylbenzyl (2S,3R)-4-acetoxy-2-ethyl-3-((1-methyl-1H-imidazol-5-yl)methyl)butanoate], which “Rate of formation Metabolite 1” value [1] is on record?
**A.** 4.34 ± 0.11 nM/min/mg

**Q.** And the “Rate of formation Metabolite 2” value [1]?
**A.** 2.87 ± 0.78 nM/min/mg

**Q.** What about the “dose relation of pupil constriction” value (rabbit pupil [2]) of the same compound?
**A.** dose-related effects

**Q.** Which results are given for CC[C@H](C(=O)OCOC(=O)N1CCN=C1Nc1ccc2[nH]cnc2c1Br)[C@H](COC(C)=O)Cc1cncn1C [Compound-4, (((2S,3R)-4-acetoxy-2-ethyl-3-((1-methyl-1H-imidazol-5-yl)methyl)butanoyl)oxy)methyl 2-((4-bromo-1H-benzo[d]imidazol-5-yl)amino)-4,5-dihydro-1H-imidazole-1-carboxylate]?
**A.** Rate of formation Metabolite 1 [1]: 5.87 ± 0.97 nM/min/mg; Rate of formation Metabolite 2 [1]: 6.34 ± 0.07 nM/min/mg

**Q.** Which results are given for CC[C@H](C(=O)N1CCN/C1=N/c1ccc2nccnc2c1Br)[C@H](COC(C)=O)Cc1cncn1C [Compound-16, (2R,3S)-3-((Z)-2-((5-bromoquinoxalin-6-yl)imino)imidazolidine-1-carbonyl)-2-((1-methyl-1H-imidazol-5-yl)methyl)pentyl acetate]?
**A.** efficacy of pupil constriction compared with positive control 1 (rabbit pupil [3]): efficacies similar to that of positive control 1; potency of pupil constriction compared with other co-drugs (rabbit pupil [3]): better potency than Compound-15 and Compound-19

**Q.** Which “efficacy of pupil constriction compared with positive control 1” value (rabbit pupil [3]) does the source give for CC[C@H](C(=O)N1CCN/C1=N/c1ccc2nccnc2c1Br)[C@H](COC(=O)C(C)(C)C)Cc1cncn1C [Compound-20, (2R,3S)-3-((Z)-2-((5-bromoquinoxalin-6-yl)imino)imidazolidine-1-carbonyl)-2-((1-methyl-1H-imidazol-5-yl)methyl)pentyl pivalate] here?
**A.** efficacies similar to that of positive control 1

**Q.** What about the “potency of pupil constriction compared with other co-drugs” value (rabbit pupil [3]) of the same compound?
**A.** better potency than Compound-15 and Compound-19

**Q.** What does the source list for CC[C@H](C(=O)OCOC(=O)N1CCN=C1Nc1ccc2[nH]cnc2c1Br)[C@H](CO)Cc1cncn1C [compound 3, (((2S,3R)-2-ethyl-4-hydroxy-3-((1-methyl-1H-imidazol-5-yl)methyl)butanoyl)oxy)methyl 2-((4-bromo-1H-benzo[d]imidazol-5-yl)amino)-4,5-dihydro-1H-imidazole-1-carboxylate]?
**A.** Rate of formation Metabolite 1 [1]: 8.86 ± 0.13 nM/min/mg; Rate of formation Metabolite 2 [1]: 1.23 ± 0.03 nM/min/mg

**Q.** For CC[C@H](C(=O)OCOC(=O)N1CCN=C1Nc1ccc2nccnc2c1Br)[C@H](CO)Cc1cncn1C [compound 5, (((2S,3R)-2-ethyl-4-hydroxy-3-((1-methyl-1H-imidazol-5-yl)methyl)butanoyl)oxy)methyl 2-((5-bromoquinoxalin-6-yl)amino)-4,5-dihydro-1H-imidazole-1-carboxylate], which “Rate of formation Metabolite 1” value [1] is on record?
**A.** 2.13 ± 0.24 nM/min/mg

**Q.** What about the “Rate of formation Metabolite 2” value [1] of the same compound?
**A.** 4.98 ± 0.34 nM/min/mg

**Q.** With CC[C@H](C(=O)OCOC(=O)N1CCN=C1Nc1ccc2nccnc2c1Br)[C@H](COC(C)=O)Cc1cncn1C [compound 6, (((2S,3R)-4-acetoxy-2-ethyl-3-((1-methyl-1H-imidazol-5-yl)methyl)butanoyl)oxy)methyl 2-((5-bromoquinoxalin-6-yl)amino)-4,5-dihydro-1H-imidazole-1-carboxylate] as the compound, how does the “Rate of formation Metabolite 1” value [1] read?
**A.** 7.43 ± 0.27 nM/min/mg

**Q.** What about the “Rate of formation Metabolite 2” value [1] of the same compound?
**A.** 1.98 ± 0.09 nM/min/mg

**Q.** What about the “Conc. of Brimonidine (Metabolite 2) in Cornea Tissue” value (from here on “Conc. of Brimonidine”) [4, 5] of the same compound?
**A.** 24 ± 12 ng/mL

**Q.** And the “Conc. of Pilocarpine (Metabolite 1) in Cornea Tissue” value (from here on “Conc. of Pilocarpine”) [4, 5]?
**A.** 39 ± 37 ng/mL

**Q.** And the “Conc. of Co-drug in Cornea Tissue” value ([4]; 0.25 hr post dose)?
**A.** 7238 ± 345 ng/mL

**Q.** And the “Conc. of Brimonidine” value [4, 6]?
**A.** 78 ± 54 ng/mL

**Q.** And the “Conc. of Pilocarpine” value [4, 6]?
**A.** 139 ± 78 ng/mL

**Q.** What about the “Conc. of Co-drug in Cornea Tissue” value ([4]; 0.5 hr post dose) of the same compound?
**A.** 987 ± 245 ng/mL

**Q.** What about the “Conc. of Brimonidine” value ([4]; 1 hr after dosing the co-drug) of the same compound?
**A.** 98 ± 23 ng/mL

**Q.** And the “Conc. of Pilocarpine” value ([4]; 1 hr after dosing the co-drug)?
**A.** 379 ± 120 ng/mL

**Q.** What about the “Conc. of Co-drug in Cornea Tissue” value ([4]; 1 hr post dose) of the same compound?
**A.** 234 ± 33 ng/mL

**Q.** What about the “Conc. of Brimonidine” value ([4]; 2 hr after dosing the co-drug) of the same compound?
**A.** 139 ± 37 ng/mL

**Q.** And the “Conc. of Pilocarpine” value ([4]; 2 hr after dosing the co-drug)?
**A.** 539 ± 30 ng/mL

**Q.** And the “Conc. of Co-drug in Cornea Tissue” value ([4]; 2 hr post dose)?
**A.** 95 ± 19 ng/mL

**Q.** What about the “Conc. of Brimonidine” value ([4]; 6 hr after dosing the co-drug) of the same compound?
**A.** 339 ± 134 ng/mL

**Q.** And the “Conc. of Pilocarpine” value ([4]; 6 hr after dosing the co-drug)?
**A.** 754 ± 127 ng/mL

**Q.** What about the “Conc. of Co-drug in Cornea Tissue” value ([4]; 6 hr post dose) of the same compound?
**A.** 39 ± 37 ng/mL

**Q.** What about the “Conc. of Brimonidine” value ([4]; 10 hr after dosing the co-drug) of the same compound?
**A.** 539 ± 97 ng/mL

**Q.** And the “Conc. of Pilocarpine” value ([4]; 10 hr after dosing the co-drug)?
**A.** 867 ± 37 ng/mL

**Q.** And the “Conc. of Co-drug in Cornea Tissue” value ([4]; 10 hr post dose)?
**A.** 12 ± 3 ng/mL

Source: patent US12622893B2, “Alpha2 adrenergic agonist codrugs conjugated with muscarinic agonist drugs” (ADS THERAPEUTICS LLC, priority 2021, dated 2026)
